From patent US20260285850A1, “SUBSTITUTED OXAZOLIDINONES AND IMIDAZOLINONES AS HERBICIDES” (FMC CORPORATION, priority 2023, published 2026)

Tests used:
Type in all cases: in vivo
corn (Zea mays) [1] = assay: Test A preemergence soil spray, visual injury rating 0-100; conditions: 10 days
Procedure, shortened: (§1)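 Rating: visual, day 10, untreated plants as reference, 0 no effect to 100 full control. Plants were in loam-sand and were treated either preemergence via directed soil spray or postemergence at the one- to two-leaf stage.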

[2] = system: ragweed (common ragweed, Ambrosia artemisiifolia); assay: as above; conditions: 10 days
Procedure, shortened: as §1

[3] = system: oat, wild (wild oat, Avena fatua); assay: as above; conditions: 10 days
Procedure, shortened: as §1

[4] = system: wheat (Triticum aestivum); assay: as above; conditions: 10 days
Procedure, shortened: as §1

[5] = system: ryegrass, Italian (italian ryegrass, Lolium multiflorum); assay: as above; conditions: 10 days
Procedure, shortened: as §1

[6] = system: green foxtail (Setaria viridis); assay: as above; conditions: 10 days
Procedure, shortened: as §1

[7] = system: barnyardgrass (Echinochloa crus-galli); assay: as above; conditions: 10 days
Procedure, shortened: as §1

kochia (Bassia scoparia) [8] = assay: as above; conditions: 10 days
Procedure, shortened: as §1

soybean (Glycine max) [9] = assay: as above; conditions: 10 days
Procedure, shortened: as §1

[10] = system: palmer (palmer amaranth, palmer pigweed, Amaranthus palmeri); assay: as above; conditions: 10 days
Procedure, shortened: as §1

[11] = system: blackgrass (Alopecurus myosuroides); assay: as above; conditions: 10 days
Procedure, shortened: as §1

[12] = system: barnyardgrass (Echinochloa crusgalli); assay: Test B flooded paddy test, visual plant response rating 0-100; conditions: 250 g ai/ha, Flood, applied to paddy water, evaluated after 13 days
Procedure, shortened: (§2)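 Visual evaluation after 13 days. Water-applied treatment, 3 cm flood depth held constant, plants at 2-leaf stage at treatment.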

rice (Oryza sativa) = assay: as above; conditions: 250 g ai/ha, Flood, applied to paddy water, evaluated after 13 days
Procedure, shortened: as §2

[13] = system: sedge, umbrella (small-flower umbrella sedge, Cyperus difformis); assay: as above; conditions: 250 g ai/ha, Flood, applied to paddy water, evaluated after 13 days
Procedure, shortened: as §2

[14] = system: ducksalad (Heteranthera limosa); assay: as above; conditions: 250 g ai/ha, Flood, applied to paddy water, evaluated after 13 days
Procedure, shortened: as §2

[15] = system: galium (catchweed bedstraw, Galium aparine); assay: Test A postemergence application, visual injury rating 0-100
Procedure, shortened: as §1

corn (Zea mays) [16] = assay: as above
Procedure, shortened: as §1

[17] = system: ragweed (common ragweed, Ambrosia artemisiifolia); assay: as above
Procedure, shortened: as §1

[18] = system: oat, wild (wild oat, Avena fatua); assay: as above
Procedure, shortened: as §1

[19] = system: wheat (Triticum aestivum); assay: as above
Procedure, shortened: as §1

[20] = system: ryegrass, Italian (italian ryegrass, Lolium multiflorum); assay: as above
Procedure, shortened: as §1

[21] = system: green foxtail (Setaria viridis); assay: as above
Procedure, shortened: as §1

[22] = system: barnyardgrass (Echinochloa crus-galli); assay: as above
Procedure, shortened: as §1

[23] = system: horseweed (Erigeron canadensis); assay: as above
Procedure, shortened: as §1

kochia (Bassia scoparia) [24] = assay: as above
Procedure, shortened: as §1

soybean (Glycine max) [25] = assay: as above
Procedure, shortened: as §1

[26] = system: palmer (palmer amaranth, palmer pigweed, Amaranthus palmeri); assay: as above
Procedure, shortened: as §1

[27] = system: blackgrass (Alopecurus myosuroides); assay: as above
Procedure, shortened: as §1

[28] = 62 g ai/ha, 0 = no effect, 100 = complete control
[29] = 62 g ai/ha, postemergence, 10 days, 0 = no effect, 100 = complete control
[30] = Postemergence, 16 g ai/ha, greenhouse 10 days, 0 no effect, 100 complete control

## CC1(C(=O)NC2CC=C(C(=O)O)C2)CN(c2cc(F)cc(F)c2)C(=O)O1 (stereo not shown) [Compound 94]
Corn (Zea mays) [1]; 16 g ai/ha, 0 to 100 scale
  Corn plant response rating: 40
Corn (Zea mays) [1]; [28]
  Corn plant response rating (0-100): 80
[2]; 16 g ai/ha, 0 to 100 scale
  Ragweed plant response rating: 20
[2]; [28]
  Ragweed plant response rating (0-100): 40
[3]; 16 g ai/ha, 0 to 100 scale
  Oat, Wild plant response rating: 10
[3]; [28]
  Oat, Wild plant response rating (0-100): 50
[4]; 16 g ai/ha, 0 to 100 scale
  Wheat plant response rating: 60
[4]; [28]
  Wheat plant response rating (0-100): 90
[5]; 16 g ai/ha, 0 to 100 scale
  Ryegrass, Italian plant response rating: 60
[5]; [28]
  Ryegrass, Italian plant response rating (0-100): 70
[6]; 16 g ai/ha, 0 to 100 scale
  Foxtail, Green plant response rating: 10
[6]; [28]
  Foxtail, Green plant response rating (0-100): 90
[7]; 16 g ai/ha, 0 to 100 scale
  Barnyardgrass plant response rating: 40
[7]; [28]
  Barnyardgrass plant response rating (0-100): 100
Kochia (Bassia scoparia) [8]; 16 g ai/ha, 0 to 100 scale
  Kochia plant response rating: 0
Kochia (Bassia scoparia) [8]; [28]
  Kochia plant response rating (0-100): 90
Soybean (Glycine max) [9]; 16 g ai/ha, 0 to 100 scale
  Soybean plant response rating: 10
Soybean (Glycine max) [9]; [28]
  Soybean plant response rating (0-100): 30
[10]; 16 g ai/ha, 0 to 100 scale
  Pigweed, Palmer plant response rating: 20
[10]; [28]
  Pigweed, Palmer plant response rating (0-100): 60
[11]; 16 g ai/ha, 0 to 100 scale
  Blackgrass plant response rating: 30
[11]; [28]
  Blackgrass plant response rating (0-100): 60
[12]
  Plant response rating, Barnyardgrass (0 to 100 scale, 0 is no effect and 100 is complete control): 95
Rice (Oryza sativa)
  Plant response rating, Rice (0 to 100 scale, 0 is no effect and 100 is complete control): 75
[13]
  Plant response rating, Sedge, Umbrella (0 to 100 scale, 0 is no effect and 100 is complete control): 95
[14]
  Plant response rating, Ducksalad (0 to 100 scale, 0 is no effect and 100 is complete control): 95
[15]; [29]
  Galium plant response rating (0-100): 90
[15]; [30]
  Galium plant response rating (0 to 100 scale): 70
Corn (Zea mays) [16]; [29]
  Corn plant response rating (0-100): 100
Corn (Zea mays) [16]; [30]
  Corn plant response rating (0 to 100 scale): 100
[17]; [29]
  Ragweed plant response rating (0-100): 50
[17]; [30]
  Ragweed plant response rating (0 to 100 scale): 50
[18]; [29]
  Oat, Wild plant response rating (0-100): 90
[18]; [30]
  Oat, Wild plant response rating (0 to 100 scale): 40
[19]; [29]
  Wheat plant response rating (0-100): 90
[19]; [30]
  Wheat plant response rating (0 to 100 scale): 60
[20]; [29]
  Ryegrass, Italian plant response rating (0-100): 90
[20]; [30]
  Ryegrass, Italian plant response rating (0 to 100 scale): 70
[21]; [29]
  Foxtail, Green plant response rating (0-100): 90
[21]; [30]
  Foxtail, Green plant response rating (0 to 100 scale): 60
[22]; [29]
  Barnyardgrass plant response rating (0-100): 100
[22]; [30]
  Barnyardgrass plant response rating (0 to 100 scale): 100
[23]; [29]
  Horseweed plant response rating (0-100): 60
[23]; [30]
  Horseweed plant response rating (0 to 100 scale): 20
Kochia (Bassia scoparia) [24]; [29]
  Kochia plant response rating (0-100): 90
Kochia (Bassia scoparia) [24]; [30]
  Kochia plant response rating (0 to 100 scale): 80
Soybean (Glycine max) [25]; [29]
  Soybean plant response rating (0-100): 70
Soybean (Glycine max) [25]; [30]
  Soybean plant response rating (0 to 100 scale): 60
[26]; [29]
  Pigweed, Palmer plant response rating (0-100): 90
[26]; [30]
  Pigweed, Palmer plant response rating (0 to 100 scale): 50
[27]; [29]
  Blackgrass plant response rating (0-100): 90
[27]; [30]
  Blackgrass plant response rating (0 to 100 scale): 80
